Test results reported in the NIST ThermoML archive (doi:10.1016/j.jct.2008.02.020).

Conditions: Liquid, Buoyancy - hydrostatic balance with magnetic suspension - one sinker

Brc1ccccc1 [bromobenzene]
Conditions | mass density [kg/m3]
248.15 K, 99.7 kPa | 1554.49
248.15 K, 1231.4 kPa | 1555.37
248.15 K, 2075.4 kPa | 1556.04
248.15 K, 4196.2 kPa | 1557.7
248.15 K, 5951 kPa | 1559.05
248.15 K, 8068.3 kPa | 1560.67
248.15 K, 10015 kPa | 1562.11
248.15 K, 11952 kPa | 1563.58
248.15 K, 13995 kPa | 1565.09
248.15 K, 15940 kPa | 1566.53
248.15 K, 18145 kPa | 1568.12
248.15 K, 19946 kPa | 1569.42
248.15 K, 21965 kPa | 1570.86
248.15 K, 24136 kPa | 1572.41
248.15 K, 25865 kPa | 1573.62
248.15 K, 27917 kPa | 1575.05
248.15 K, 29850 kPa | 1576.39
273.15 K, 100.51 kPa | 1520.56
273.15 K, 1116.3 kPa | 1521.45
273.15 K, 2128.1 kPa | 1522.34
273.15 K, 4045.8 kPa | 1524.03
273.15 K, 5967.3 kPa | 1525.66
273.15 K, 8142.8 kPa | 1527.52
273.15 K, 10020 kPa | 1529.11
273.15 K, 11896 kPa | 1530.68
273.15 K, 13922 kPa | 1532.35
273.15 K, 16083 kPa | 1534.13
273.15 K, 18195 kPa | 1535.83
273.15 K, 20035 kPa | 1537.31
273.15 K, 21829 kPa | 1538.75
273.15 K, 23856 kPa | 1540.34
273.15 K, 25976 kPa | 1542.02
273.15 K, 28098 kPa | 1543.65
273.15 K, 29947 kPa | 1545.09
293.15 K, 101.93 kPa | 1493.56
293.15 K, 1239.7 kPa | 1494.68
293.15 K, 2010.7 kPa | 1495.41
293.15 K, 4059.7 kPa | 1497.37
293.15 K, 6007.9 kPa | 1499.22
293.15 K, 8079.8 kPa | 1501.16
293.15 K, 10001 kPa | 1502.94
293.15 K, 11960 kPa | 1504.73
293.15 K, 14169 kPa | 1506.73
293.15 K, 15879 kPa | 1508.27
293.15 K, 17960 kPa | 1510.11
293.15 K, 19999 kPa | 1511.9
293.15 K, 21880 kPa | 1513.53
293.15 K, 24122 kPa | 1515.46
293.15 K, 26141 kPa | 1517.17
293.15 K, 28060 kPa | 1518.79
293.15 K, 29993 kPa | 1520.42
313.15 K, 102.54 kPa | 1466.55
313.15 K, 2000.8 kPa | 1468.59
313.15 K, 4011 kPa | 1470.71
313.15 K, 6189.6 kPa | 1473
313.15 K, 7991.6 kPa | 1474.86
313.15 K, 10089 kPa | 1477.01
313.15 K, 12143 kPa | 1479.06
313.15 K, 14015 kPa | 1480.93
313.15 K, 16087 kPa | 1482.94
313.15 K, 18047 kPa | 1484.85
313.15 K, 20004 kPa | 1486.73
313.15 K, 22154 kPa | 1488.76
313.15 K, 23944 kPa | 1490.45
313.15 K, 26100 kPa | 1492.42
313.15 K, 28042 kPa | 1494.21
313.15 K, 29906 kPa | 1495.9
333.15 K, 100.42 kPa | 1439.38
333.15 K, 1115 kPa | 1440.6
333.15 K, 1943.4 kPa | 1441.57
333.15 K, 4094.5 kPa | 1444.1
333.15 K, 6114.2 kPa | 1446.44
333.15 K, 7927.8 kPa | 1448.51
333.15 K, 10022 kPa | 1450.84
333.15 K, 11958 kPa | 1453
333.15 K, 13999 kPa | 1455.24
333.15 K, 16049 kPa | 1457.44
333.15 K, 18156 kPa | 1459.68
333.15 K, 20008 kPa | 1461.63
333.15 K, 22158 kPa | 1463.84
333.15 K, 24130 kPa | 1465.86
333.15 K, 26094 kPa | 1467.85
333.15 K, 28018 kPa | 1469.76
333.15 K, 29890 kPa | 1471.61
353.15 K, 99.8 kPa | 1411.94
353.15 K, 1173.8 kPa | 1413.37
353.15 K, 1944.3 kPa | 1414.39
353.15 K, 3949.8 kPa | 1417.01
353.15 K, 5968.9 kPa | 1419.61
353.15 K, 7990.5 kPa | 1422.16
353.15 K, 9916 kPa | 1424.56
353.15 K, 11987 kPa | 1427.09
353.15 K, 14135 kPa | 1429.67
353.15 K, 15921 kPa | 1431.8
353.15 K, 18146 kPa | 1434.39
353.15 K, 19874 kPa | 1436.37
353.15 K, 22180 kPa | 1438.99
353.15 K, 23964 kPa | 1440.98
353.15 K, 26085 kPa | 1443.32
353.15 K, 28122 kPa | 1445.53
353.15 K, 29956 kPa | 1447.5
373.15 K, 98.54 kPa | 1384.07
373.15 K, 1150.1 kPa | 1385.64
373.15 K, 2174.4 kPa | 1387.16
373.15 K, 3917.7 kPa | 1389.71
373.15 K, 6182.4 kPa | 1392.96
373.15 K, 8042.7 kPa | 1395.57
373.15 K, 10003 kPa | 1398.28
373.15 K, 12008 kPa | 1400.99
373.15 K, 14086 kPa | 1403.76
373.15 K, 15913 kPa | 1406.15
373.15 K, 18066 kPa | 1408.91
373.15 K, 19882 kPa | 1411.21
373.15 K, 22174 kPa | 1414.05
373.15 K, 24053 kPa | 1416.33
373.15 K, 25897 kPa | 1418.54
373.15 K, 27711 kPa | 1420.7
373.15 K, 29531 kPa | 1422.85
393.15 K, 97.33 kPa | 1355.66
393.15 K, 1226 kPa | 1357.56
393.15 K, 2181.2 kPa | 1359.15
393.15 K, 3965.3 kPa | 1362.08
393.15 K, 6075.4 kPa | 1365.47
393.15 K, 8146.9 kPa | 1368.75
393.15 K, 9937.3 kPa | 1371.46
393.15 K, 11970 kPa | 1374.53
393.15 K, 14177 kPa | 1377.78
393.15 K, 15956 kPa | 1380.34
393.15 K, 18164 kPa | 1383.47
393.15 K, 20147 kPa | 1386.23
393.15 K, 22176 kPa | 1389
393.15 K, 23982 kPa | 1391.42
393.15 K, 26170 kPa | 1394.3
393.15 K, 28005 kPa | 1396.7
393.15 K, 29542 kPa | 1398.68
413.15 K, 99.45 kPa | 1326.55
413.15 K, 1202.8 kPa | 1328.65
413.15 K, 2177.1 kPa | 1330.51
413.15 K, 3915.5 kPa | 1333.73
413.15 K, 6185.5 kPa | 1337.83
413.15 K, 8176.1 kPa | 1341.33
413.15 K, 10032 kPa | 1344.48
413.15 K, 12104 kPa | 1348.01
413.15 K, 13992 kPa | 1351.03
413.15 K, 15890 kPa | 1354.12
413.15 K, 18162 kPa | 1357.68
413.15 K, 19933 kPa | 1360.41
413.15 K, 22150 kPa | 1363.74
413.15 K, 24133 kPa | 1366.66
413.15 K, 26039 kPa | 1369.41
413.15 K, 27898 kPa | 1372.06
413.15 K, 29858 kPa | 1374.81
433.15 K, 1243.8 kPa | 1299.09
433.15 K, 1973.3 kPa | 1300.66
433.15 K, 4075.9 kPa | 1305.09
433.15 K, 6197.8 kPa | 1309.43
433.15 K, 7981.5 kPa | 1312.95
433.15 K, 10020 kPa | 1316.91
433.15 K, 12073 kPa | 1320.75
433.15 K, 14034 kPa | 1324.34
433.15 K, 15960 kPa | 1327.77
433.15 K, 17921 kPa | 1331.19
433.15 K, 19992 kPa | 1334.75
433.15 K, 21950 kPa | 1337.95
433.15 K, 24018 kPa | 1341.31
433.15 K, 26143 kPa | 1344.68
433.15 K, 28052 kPa | 1347.64
433.15 K, 29864 kPa | 1350.43
453.15 K, 1135.4 kPa | 1268.14
453.15 K, 1982.5 kPa | 1270.24
453.15 K, 4017.7 kPa | 1275.16
453.15 K, 6189 kPa | 1280.22
453.15 K, 7994.2 kPa | 1284.28
453.15 K, 10139 kPa | 1288.98
453.15 K, 12157 kPa | 1293.2
453.15 K, 13982 kPa | 1296.94
453.15 K, 16134 kPa | 1301.21
453.15 K, 18122 kPa | 1305.05
453.15 K, 19974 kPa | 1308.56
453.15 K, 22141 kPa | 1312.52
453.15 K, 24115 kPa | 1316.05
453.15 K, 26121 kPa | 1319.56
453.15 K, 28034 kPa | 1322.83
453.15 K, 29912 kPa | 1325.98
473.15 K, 1191.2 kPa | 1236.28
473.15 K, 2175.4 kPa | 1239.12
473.15 K, 4131.5 kPa | 1244.58
473.15 K, 5988.1 kPa | 1249.54
473.15 K, 8161.4 kPa | 1255.13
473.15 K, 10165 kPa | 1260.08
473.15 K, 12166 kPa | 1264.85
473.15 K, 14163 kPa | 1269.43
473.15 K, 16125 kPa | 1273.8
473.15 K, 18167 kPa | 1278.2
473.15 K, 20146 kPa | 1282.35
473.15 K, 22123 kPa | 1286.36
473.15 K, 24157 kPa | 1290.39
473.15 K, 26075 kPa | 1294.08
473.15 K, 28020 kPa | 1297.73
473.15 K, 29860 kPa | 1301.12
